Experiments:
KC6141 mouse PDAC cells = test: Cell viability assay (CCK-8); assay type: cell-based; conditions: WT and IKKα KD 6141 cells on ECM, 0.5 mM glucose, 3 days; EIPA, IPI549 600 nM, MBQ-167 500 nM
Experimental: Extracellular Matrix (ECM) Preparation. Skin fibroblasts were seeded on 6/12/96-well plates. One day after plating, cells were switched into DMEM (with pyruvate) with 10% dialysed FBS supplemented with or without 500 μM ^3H-proline and 100 μM Vitamin C. Cells were cultured for 6 days with media renewal every 24 h. After six days, skin fibroblasts were removed by washing in 1 ml or 500 μl or 100 μl per well PBS with 0.5% (v/v) Triton X-100 and 20 mM NH4OH. ECM was washed five times with PBS before plating KC6141 cells. The following day, KC6141 cells were switched into the indicated medium for 24 or 72 hrs.
Cell viability assay. Cell viability was determined with Cell Counting Kit-8 assay (CCK-8 assay kit, Glpbio). Cells were plated in 96-well plates at a density of 3000 cells (MIA PaCa-2) or 1500 cells (KC6141) per well and incubated overnight prior to treatment. EIPA (10 μM), MRT68921 (600 nM) or erlotinib (2 μM, Sigma) were added to the wells for 72 and 96 hrs. Next, 10 μL of CCK-8 was added to each well. The optical density was read at 450 nm using a microplate reader (FilterMax F5, Molecular Devices, USA) at day 0, 1, 2, 3, and 4. For glutamine-deprivation assays, cells in 96-well plates were rinsed briefly in PBS and incubated in the 0.2 mM glutamine. Glutamine-free DMEM medium was supplemented with 0.2 mM glutamine in the presence of 10% dialysed FBS and 25 mM HEPES. For some conditions, the medium was supplemented with a final concentration of 2% BSA (Fraction V, fatty-acid-, nuclease and protease-free, Calbiochem). For all experiments, media were replaced every 24 hrs. Viable cell counts were obtained using CCK-8 assay described as above.
In some embodiments, cells were plated in 96-well plates coated with or without ECM at a density of 3000 cells (MIA PaCa-2, 1444, 1305, COLO 357/FG) or 1500 cells (KC6141) per well and incubated overnight prior to treatment. EIPA (10.5 μM), IPI549 (600 nM), MBQ-167 (500 nM), MRT68921 (600 nM) or erlotinib (2 μM, Sigma), ML385 (10 μM, Sigma), HCQ (10 μM or 80 μM) or their combinations were added to the wells for 24, 72 or 96 hrs. Next, 10 μL of CCK-8 was added to each well. The optical density was read at 450 nm using a microplate reader (FilterMax F5, Molecular Devices, USA) at day 0, 1, 2, 3, and 4. For glutamine-deprivation assays, cells in 96-well plates were rinsed briefly in PBS and incubated in the 0.2 mM glutamine. Glutamine-free DMEM medium was supplemented with 0.2 mM glutamine in the presence of 10% dialyzed FBS and 25 mM HEPES. For glucose-deprivation assays, cells in 96-well plates were rinsed briefly in PBS and incubated in the 0.5 mM glucose. Glucose-free DMEM medium was supplemented with 0.5 mM glucose in the presence of 10% dialyzed FBS and 25 mM HEPES. For some conditions, the medium was supplemented with a final concentration of 2% BSA (Fraction V, fatty-acid-, nuclease and protease-free, Calbiochem). For all experiments, media were replaced every 24 hrs. Viable cell counts were obtained using CCK-8 assay described as above.

AKT phosphorylation = test: Immunoblot of AKT phosphorylation; assay type: cell-based, human; conditions: NRF2(E79Q)-Myc-overexpressing MIA PaCa-2 cells, 600 nM IPI549
Experimental: Immunoblot and immunoprecipitation. Cells were harvested and lysed in RIPA buffer (50 mM Tris-HCl, pH 7.4, 150 mM NaCl, 1% Triton X-100, 1% Na deoxycholate, 0.1% SDS, 1 mM EDTA) supplemented with complete protease inhibitor cocktail. Proteins were resolved on SDS-polyacrylamide gels, and then transferred to a polyvinylidene difluoride membrane. After blocking with 5% (w/v) fat free milk, the membrane was stained with the corresponding primary antibodies followed by incubation with the appropriate secondary HRP-conjugated antibodies, and development with ECL. Immunoreactive bands were detected by automatic X-ray film processor or KwikQuant Imager.

With `C[C@H](NC(=O)c1c(N)nn2cccnc12)c1cc2cccc(C#Cc3cnn(C)c3)c2c(=O)n1-c1ccccc1` [IPI549] the “cell viability enhanced by extracellular matrix (ECM)” value (KC6141 mouse PDAC cells) was “suppressed” and the AKT phosphorylation (AKT phosphorylation) was “suppression of AKT phosphorylation”.

Reference: patent US12458630B2, “Combination therapy for cancer” (The Regents of the University of California, priority 2020, dated 2025)
